# Values of other authors, collected in patent publication US12557779B2 (priority 2020, dated 2026).
# Biological target: cannabinoid receptor type 2 (CB2) (Homo sapiens, UniProt P34972)
# Sequence (P34972 whole entry, species assumed): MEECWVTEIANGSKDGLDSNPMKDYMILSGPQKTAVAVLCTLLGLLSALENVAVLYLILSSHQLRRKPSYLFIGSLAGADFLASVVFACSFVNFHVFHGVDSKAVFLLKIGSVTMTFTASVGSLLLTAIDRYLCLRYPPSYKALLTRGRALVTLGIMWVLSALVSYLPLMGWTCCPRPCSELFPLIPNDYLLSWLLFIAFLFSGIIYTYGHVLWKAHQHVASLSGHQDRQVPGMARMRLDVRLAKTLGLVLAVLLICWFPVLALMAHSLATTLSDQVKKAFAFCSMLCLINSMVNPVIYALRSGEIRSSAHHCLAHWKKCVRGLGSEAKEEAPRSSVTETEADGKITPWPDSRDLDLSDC
smiles,measurement,value
"C=C(C)[C@@H]1CCC(C)=C[C@H]1c1c(O)cc(CCCCC)cc1O [CBD, cannabidiol]",affinity for CB2,minimal affinity
